This assay has as its system OPN knockout (OPN-KO) mice. Put plainly: BFR and MAR in cortical bone (femoral mid-diaphysis) after PTH treatment, OPN-KO mice. It counts as in vivo, mouse. The method, then: In the case of cortical bone, decalcified horizontal sections (serial sections of 3 μm thickness) were prepared from the femoral mid-diaphysis and analyzed for BFR and MAR in the periosteal and endosteal regions. More specifically, a calcium chelator calcein (4 mg/kg of body weight) was subcutaneously administered 9 days and 2 days before sampling and the interval between two labeled bands was determined under a fluorescence microscope to calculate BFR and MAR.
BFR denotes bone formation rate per unit trabecular area (μm^3/μm^2/day).
MAR denotes the rate of increase in the distance between labeled calcified bands (μm/day).
To create an animal model in which the in vivo effects of OPN were inhibited, strain 129 female mice at 7 weeks of age were modified into knockout mice deficient in the OPN gene (OPN-KO mice), as described in Rittling et al. J. Bone Miner. Res., 13: 1101-1111, 1998. These mice were singly used for PTH treatment test. They were divided into groups of 6 mice each.
Recombinant human PTH(1-34) (Bachem, Torrance, Calif.) was dissolved in acidified physiological saline supplemented with 0.1% bovine serum albumin (Sigma Chemical Co.-Aldrich, St. Louis, Mo.). The OPN-KO mice were subcutaneously administered with 80 μg/kg of body weight human PTH(1-34) for 4 weeks on a five-days-a-week basis. Mice in the control group were administered with physiological saline alone.

Setting [1] is: PTH(+) group, 80 μg/kg s.c., 4 weeks.

Consider one substance from US20080076711A1, “Therapeutic agents for osteopenia” (Chugai Seiyaku Kabushiki Kaisha, priority 2001, published 2008).

Turning to human PTH(1-34), under setting [1], the “endosteal BFR, cortical bone” value worked out at 0.62±0.09 μm^3/μm^2/day; the “endosteal MAR, cortical bone” value worked out at 1.33±0.28 μm/day; the “periosteal BFR (bone formation rate), cortical bone” value is 2.38±0.18 μm^3/μm^2/day; the “periosteal MAR (mineral apposition rate), cortical bone” value is 2.97±0.25 μm/day. The “effect of PTH treatment on endosteal BFR and MAR” value (PTH(+) vs PTH(−) group) is reported as “little effect”. Further, under “PTH(+) vs PTH(−) group, p<0.05”, the “fold increase in periosteal BFR by PTH treatment” value is given as roughly 1.8 fold and the “fold increase in periosteal MAR by PTH treatment” value is listed as roughly 1.2 fold.
